From PMC11129182, “Development of Inhibitors, Probes, and PROTAC Provides a Complete Toolbox to Study PARK7 in the Living Cell” (Journal of Medicinal Chemistry, 2024)
Where two headings read alike, the source gives them in different places.

Columns and labels:
PARK7 [1] = biological target: T1, PARK7 (Homo sapiens, UniProt Q99497); assay: Activity evaluation of PROTACs in cells (PARK7 degradation, immunoblot); set-up: Dmax: dose or concentration left out as unconfirmed
T1 sequence (Q99497 1-189): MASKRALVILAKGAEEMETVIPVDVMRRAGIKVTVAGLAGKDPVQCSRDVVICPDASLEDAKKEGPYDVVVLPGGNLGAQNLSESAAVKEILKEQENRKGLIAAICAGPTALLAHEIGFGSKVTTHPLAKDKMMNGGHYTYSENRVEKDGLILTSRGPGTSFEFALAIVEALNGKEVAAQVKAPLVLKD
Protocol: A549 cells were seeded into 6-well plates. The next day after seeding, cells were incubated with the indicated concentrations of indicated PROTACs for 8 h. The cells were then washed with PBS and collected. The collected cell pellets were lysed with Tris-triton buffer as described above. The prepared cell lysate of each sample (10 μL) was added 5 μL 3× LDS + 5% β-mercaptoethanol, and boiled for 10 min.

PARK7 [2] = biological target: T1, PARK7; assay: TMT-based global proteomic profiling in A549 cells, PARK7; format: cell-based; set-up: incubating A549 cells with 5 μM JYQ-194 for 8 h, along with 5 μM JYQ-173 and DMSO as a control; endogenous in cells; host or cells: A549; conditions: 5 μM, 8 h
Protocol: A549 cells were seeded into 10 cm plates in 10 mL of media. […] Cells were lysed using a 5% SDS lysis buffer (100 mM Tris-HCl, pH 7.6) and were incubated at 95 °C for 4 min. Protein determination was performed using the Pierce BCA Gold protein assay. 100 μg of protein of each sample was reduced and alkylated, and excess iodoacetamide was quenched using 5 mM TCEP, 15 mM iodoacetamide, and 10 mM DTT, respectively. The protein was pelleted down using chloroform/methanol precipitation, and the resulting pellets were resolubilized in 40 mM HEPES pH 8.4. […] The Pierce BCA Gold protein assay was used to determine the peptide concentration. The peptides were labeled with TMTpro Label Reagents in a 1:4 ratio by mass (peptides/TMT reagents) for 1 h at RT. Five μL of 6% hydroxylamine was added to quench excess TMT reagent and incubated for 15 min at RT. Samples were pooled and lyophilized. The sample was subsequently fractionated on an Agilent 1200 series HPLC system (Agilent Technologies). 75 μg of the pooled sample was dissolved in solvent A (10 mM NH4HCO3, pH 8.4), injected onto, and eluted from an Agilent Eclipse Plus C18 2.1 × 150 mm 3.5 μm column (Agilent Technologies). The gradient was run from 2 to 90% solvent B (10 mM NH4HCO3, pH 8.4 final concentration, 20/80 water/acetonitrile v/v) in 30 min at a flow rate of 200 μL/min. […]

[3] = tested on: other proteins of A549 cells; assay: TMT-based global proteomic profiling in A549 cells, other proteins; format: cell-based, Homo sapiens; conditions: 8 h; for Abundance Ratio: (compound) / (1 DMSO) / Abundance Ratio: log2 (compound) / (1 DMSO): A549, 5 μM
Protocol: A549 cells were seeded into 10 cm plates in 10 mL of media. […] Cells were lysed using a 5% SDS lysis buffer (100 mM Tris-HCl, pH 7.6) and were incubated at 95 °C for 4 min. Protein determination was performed using the Pierce BCA Gold protein assay. 100 μg of protein of each sample was reduced and alkylated, and excess iodoacetamide was quenched using 5 mM TCEP, 15 mM iodoacetamide, and 10 mM DTT, respectively. The protein was pelleted down using chloroform/methanol precipitation, and the resulting pellets were resolubilized in 40 mM HEPES pH 8.4. […] The Pierce BCA Gold protein assay was used to determine the peptide concentration. The peptides were labeled with TMTpro Label Reagents in a 1:4 ratio by mass (peptides/TMT reagents) for 1 h at RT. Five μL of 6% hydroxylamine was added to quench excess TMT reagent and incubated for 15 min at RT. Samples were pooled and lyophilized. The sample was subsequently fractionated on an Agilent 1200 series HPLC system (Agilent Technologies). 75 μg of the pooled sample was dissolved in solvent A (10 mM NH4HCO3, pH 8.4), injected onto, and eluted from an Agilent Eclipse Plus C18 2.1 × 150 mm 3.5 μm column (Agilent Technologies). The gradient was run from 2 to 90% solvent B (10 mM NH4HCO3, pH 8.4 final concentration, 20/80 water/acetonitrile v/v) in 30 min at a flow rate of 200 μL/min. Twelve fractions were made; every 30 s a fraction was collected in a vial, and the eluate of the next 30 s was collected in the next vial and so on until it loops back to the first vial (5 loops of 6 min each). Afterward, the samples were lyophilized.
2.2.07 (www.matrixscience.com) for protein identification. Mascot searches were with 10 ppm and 0.02 Da deviation for precursor and fragment mass, respectively. Enzyme specificity was set to trypsin. Up to two missed cleavages were allowed. Methionine oxidation and acetyl on protein N-terminus were set as variable modifications. Carbamidomethyl on Cys and TMTpro on Lys and N-terminus were set as fixed modifications. Protein FDR of 1% was set. Normalization was on total peptide amount. The values for each TMT channel were normalized to the average of the values for the DMSO samples for the same peptide, and these values were named FC. The log2 FC values of all replicates for the same master protein were averaged to give the “Average log2 FC”. A one-sample t test was performed against the null hypothesis of log2 FC = 0, and the resulting −log10p values were reported for each protein. The volcano plot was plotted using GraphPad Prism v.9.01.

[4] = biological target: T2, reactive cysteine sites of other proteins in A549 cells (Homo sapiens, UniProt O60664); conditions: 4 h, O60664_C39 Perilipin-3
T2 sequence (O60664 1-434): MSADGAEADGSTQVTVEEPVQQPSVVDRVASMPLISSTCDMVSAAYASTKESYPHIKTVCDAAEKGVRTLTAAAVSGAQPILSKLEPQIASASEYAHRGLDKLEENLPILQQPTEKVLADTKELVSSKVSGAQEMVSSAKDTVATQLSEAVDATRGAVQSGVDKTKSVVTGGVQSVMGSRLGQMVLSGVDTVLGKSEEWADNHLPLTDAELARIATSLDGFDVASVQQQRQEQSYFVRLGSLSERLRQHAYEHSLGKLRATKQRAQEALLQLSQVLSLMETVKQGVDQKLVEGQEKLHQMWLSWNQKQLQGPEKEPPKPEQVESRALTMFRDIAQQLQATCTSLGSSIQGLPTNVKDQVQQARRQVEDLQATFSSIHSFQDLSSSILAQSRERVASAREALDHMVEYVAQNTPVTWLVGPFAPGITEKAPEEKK
From the text: (§1) Further, the samples were digested with tosylsulfonyl phenylalanyl chloromethyl ketone (TPCK)-treated trypsin and endoGluC to increase the coverage of protein sequences, especially the PARK7 peptide containing Cys106 residue. Peptides generated by digestion from replicates of each sample were labeled using TMT16-plex to perform tandem mass tag (TMT)-based quantitative proteomics profiling. Following the TMT labeling, all samples were pooled and the peptides conjugated to the DBIA probe were enriched by streptavidin beads and analyzed by LC-MS/MS (Figure 3A). […] All cysteines were represented with the shortest peptide by using the average CR values of all the peptides with the same modified cysteine from the same protein in the same condition.[16],[27],[28]
(§2) A549 cells were seeded into 10 cm plates in 10 mL of media. […] The cells were then washed two times with cold PBS (1 mL per 10 cm plate) and collected by scraping them with a cell scraper. Cells were lysed by sonication in ice-cold PBS and centrifuged at 15,000 rpm for 2 min to remove cell debris. The BCA Gold protein assay (Thermo Fisher Scientific) was performed to determine protein concentration. Each sample (100 μg) was labeled with 500 μM DBIA probe for 1 h in the dark at room temperature (RT). Excess DBIA and disulfide bonds were quenched and reduced, respectively, using 5 mM dithiothreitol (DTT) for 30 min in the dark at RT. Reduced disulfide bonds were alkylated using 20 mM iodoacetamide for 30 min in the dark at RT. […] Digested peptides were labeled with TMTpro16-plex reagents (Thermo Fisher Scientific) in a 1:4 ratio by mass (peptides/TMT reagents) for 1 h at RT. Excess TMT reagent was quenched with 5 μL 6% hydroxylamine for 15 min at RT. All samples were then pooled and lyophilized.
(§3) Nonspecific binding peptides were washed away using the following procedure: 3 × 1 mL of PBS pH 7.4, 2 × 1 mL of PBS with 0.1% SDS pH 7.4, and 3 × 1 mL of HPLC-grade water. DBIA probe-containing peptides were eluted using 700 μL of 50% acetonitrile in 0.1% TFA, lyophilized using a Speedvac, and desalted using a handmade mini-SPE column (10% sorbent material of a Waters, OASIS 1 cm^3 HLB 30 mg cartridge). Column was equilibrated with 200 μL of 90% acetonitrile and 3 × 200 μL of 10 mM NH4HCO3 pH 8.4. The dried sample was dissolved in 200 μL of 10 mM NH4HCO3 pH 8.4, loaded onto the column, washed 3x with 200 μL of 10 mM NH4HCO3 pH 8.4, and eluted into 3 fractions with 150 μL of 10, 20, and 50% acetonitrile (in 10 mM NH4HCO3). Samples were then lyophilized.
(§4) 2.2.04 (www.matrixscience.com) for protein identification. Mascot searches were done with 10 ppm and 0.02 Da deviation for the precursor and fragment mass, respectively, and the enzymes trypsin and EndoGluC was specified, up to three missed cleavages were allowed. Methionine oxidation, acetyl (protein N-term), and DBIA on Cys were set as a variable modification. Carbamidomethyl on Cys and TMTpro on Lys and N-term were set as a fixed modification. Peptides with an FDR <1% were accepted. Peptides were only retained, if they were quantified and if there was exactly one DBIA modification on the peptide. The values for each TMT channel were normalized to the average of the values for the DMSO samples for the same peptide, and these values were named CR. For each peptide, the first entry of the Master Protein Accessions column was chosen as the Master Protein Accession, and the residue number of the cysteine modified by DBIA within the entire protein sequence was determined. Using this information, each peptide was assigned an identifier consisting of the Master Protein Accession and the residue number of the modified cysteine to assign each peptide to the respective modified cysteine residue. Within each replicate, CR values for all peptides with the same identifier (and thus the same modified cysteine residue) were combined by averaging and only the shortest Annotated Sequence was kept as the final Annotated Sequence.

[5] = biological target: reactive cysteine sites of other proteins in A549 cells (Homo sapiens, UniProt P04080); conditions: 4 h, P04080_C3 Cystatin-B
Chain of reactive cysteine sites of other proteins in A549 cells (Homo sapiens, UniProt P04080) (P04080 whole entry): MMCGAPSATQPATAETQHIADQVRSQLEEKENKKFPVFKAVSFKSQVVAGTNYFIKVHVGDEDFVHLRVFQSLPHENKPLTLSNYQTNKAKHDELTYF
From the text: as §1, §2, §3, §4

[6] = biological target: reactive cysteine sites of other proteins in A549 cells (Homo sapiens, UniProt Q13085); conditions: 4 h, Q13085_C1297 Acetyl-CoA carboxylase 1
From the text: as §1, §2, §3, §4

[7] = biological target: reactive cysteine sites of other proteins in A549 cells (Homo sapiens, UniProt P40222); conditions: 4 h, P40222_C87 Alpha-taxilin
Chain of reactive cysteine sites of other proteins in A549 cells (Homo sapiens, UniProt P40222) (P40222 whole entry): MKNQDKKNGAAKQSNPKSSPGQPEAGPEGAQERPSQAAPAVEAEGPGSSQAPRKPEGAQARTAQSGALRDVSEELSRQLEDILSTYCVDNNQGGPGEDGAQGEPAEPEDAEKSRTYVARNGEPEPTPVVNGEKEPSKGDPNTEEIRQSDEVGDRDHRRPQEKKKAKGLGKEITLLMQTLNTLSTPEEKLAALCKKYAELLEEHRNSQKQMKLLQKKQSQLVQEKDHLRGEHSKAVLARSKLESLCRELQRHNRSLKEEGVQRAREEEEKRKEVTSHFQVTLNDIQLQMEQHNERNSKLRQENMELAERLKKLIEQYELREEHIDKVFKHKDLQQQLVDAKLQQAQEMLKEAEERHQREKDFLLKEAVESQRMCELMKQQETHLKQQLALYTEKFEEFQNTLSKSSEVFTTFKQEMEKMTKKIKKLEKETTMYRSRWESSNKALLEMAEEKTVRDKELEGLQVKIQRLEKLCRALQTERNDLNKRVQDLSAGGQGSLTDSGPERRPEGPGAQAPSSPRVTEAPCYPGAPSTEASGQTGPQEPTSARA
From the text: as §1, §2, §3, §4

A549 cells = assay: Cell viability assay (CellTiter-Blue); format: cell-based, human; conditions: up to 5 μM, 72 h incubation
Protocol: 5 × 10^3 A549 cells were seeded into 96-well plates. The following day, the indicated final concentrations of JYQ-164 and JYQ-173 were added to the cells, and DMSO was used as a control. Inhibitors were renewed at 36 h, and cells were incubated with them an additional 36 h. Cell viability was measured using the CellTiter-Blue viability assay (Promega). Relative survival was normalized to the DMSO-treated sample and corrected for background signal. page 8: Figure S6. Cytotoxicity assay for JYQ-164 and JYQ-173 in A549 cells. ( A) PARK7 engagement of JYQ -164 and JYQ-173 in A459 cells. A549 cells were incubated with […] The reactions were stopped by addition of NuPAGE™ LDS sample buffer (4x) , followed by cell lysis, SDS-PAGE, fluorescence scanning, and immunoblott in g against PARK7 and β-actin. β-actin was used as a loading control. (B) A549 cells were incubated with indicated concentration of JYQ-164 (left panel) or JYQ-173 (right panel) for 72 h where the inhibitors were renewed after 36 h. Cell viability was measured using the CellTiter-Blue assay. Relative viability was normalized to untreated control and corrected for background signal. S8 (1 picture or pasted object on this page, not shown here)

## N#CN1CC[C@@H](C(=O)Nc2nc3c(s2)CN(C(=O)c2cc(-n4cc(COCCOCCNc5cccc6c5C(=O)N(C5CCC(=O)NC5=O)C6=O)nn4)ccc2F)CC3)C1 (stereo partly shown) [JYQ-194]
PARK7 [1]; A549
  Dmax: ~80%
PARK7 [1]; A549 cells, 5 μM
  time from which PARK7 degradation is observed: 4 h
PARK7 [1]; A549 cells, 5 μM, remained until 24 h
  time by which maximal PARK7 degradation is reached: 8 h
PARK7 [1]; A549 cells, 0.1 to 5 μM, 8 h
  concentration at which PARK7 degradation starts: 0.1 µM
PARK7 [1]; Hela, H1299, and MCF7 cells, 8 h
  PARK7 degradation in other tumor cell lines: PARK7 degradation was observed in all these cells in a dose-dependent manner
PARK7 [2]
  PARK7 protein level (total proteome profiling): induced the degradation of PARK7
[3]; ESYT2 (A0FGR8)
  Abundance Ratio: (compound) / (1 DMSO): 1.074
  Abundance Ratio: log2 (compound) / (1 DMSO): 0.1157
[3]; RBM47 (A0AV96)
  Abundance Ratio: (compound) / (1 DMSO): 1.045
  Abundance Ratio: log2 (compound) / (1 DMSO): 0.07722
[3]; SMIM26 (A0A096LP01)
  Abundance Ratio: (compound) / (1 DMSO): 1.081
  Abundance Ratio: log2 (compound) / (1 DMSO): 0.1302
[3]; TTC26 (A0AVF1)
  Abundance Ratio: (compound) / (1 DMSO): 0.975
  Abundance Ratio: log2 (compound) / (1 DMSO): -0.08647
[3]; UBA6 (A0AVT1)
  Abundance Ratio: (compound) / (1 DMSO): 0.964
  Abundance Ratio: log2 (compound) / (1 DMSO): -0.04606
[3]; A549 cells, 5 μM
  DOP1B protein level (total proteome profiling): decreased
  HINT2 protein level (total proteome profiling): partly decreased
  TM7SF3 protein level (total proteome profiling): decreased

## N#CN1CC[C@@H](C(=O)Nc2nc3c(s2)CN(C(=O)c2cccc(S(=O)(=O)N4CCOCC4)c2)CC3)C1 [Compound 340, (R)-1-Cyano-N-(5-(3-(morpholinosulfonyl)benzoyl)-4,5,6,7-tetrahydrothiazolo[5,4-c]pyridin-2-yl)pyrrolidine-3-carboxamide]
[4]; A549, 0.5 µM
  Average log2 CR (DMSO/inhibitor): 0.5943
[4]; A549, 5 µM
  Average log2 CR (DMSO/inhibitor): 0.5954
[5]; A549, 0.5 µM
  Average log2 CR (DMSO/inhibitor): 1.056
[5]; A549, 5 µM
  Average log2 CR (DMSO/inhibitor): 0.758
[6]; A549, 0.5 µM
  Average log2 CR (DMSO/inhibitor): 0.8087
[6]; A549, 5 µM
  Average log2 CR (DMSO/inhibitor): 0.7839
[7]; A549, 0.5 µM
  Average log2 CR (DMSO/inhibitor): 0.6134
[7]; A549, 5 µM
  Average log2 CR (DMSO/inhibitor): 0.7033
A549 cells
  cytotoxicity: did not show any cytotoxicity
